Results from patent publication US20170258871A1, “COMBINED USE OF A TRKA INHIBITOR AND AN EPHA2 INHIBITOR FOR USING IN THE TREATMENT OF SOLID CANCERS, AND METHOD FOR THE PROGNOSIS OF SURVIVAL OF A PATIENT WHO HAS A SOLID CANCER” (UNIVERSITE DES SCIENCES ET TECHNOLOGIES DE LILLE, priority 2014, published 2017).

What was measured:
Type in all cases: cell-based
[1] = test system: MDA-MB-231 cells; test: In vitro invasion test (Boyden chamber), MDA-MB-231
Description: (§1) (0.5 nM) for a period of 20 hours. The untreated cells represent the control and determine a base invasion of 100%.
(§2) FIG. 3: A study of the involvement of EphA2 on the pro-invasive effects of proNGF. The invasion test is carried out on cells MDA-MB-231 (A), DU145 (B) and PC3 (C) transfected with a siRNA against EphA2 (siEphA2), TrkA (siTrkA) or a random siRNA (siCTRL). The transfected siCTRL cells are treated to provide a control and determine a base invasion of 100% (white column). […] The efficacy of the siRNA is measured by the western blot method through the use of specific antibodies against TrkA, EphA2, and actin (load control).
FIG. 10: Study on the effect of lestaurtinib (TrkA inhibitor) and EphrinA1-Fc (EphA2 inhibitor) and combination of treatment on invasion of breast cancer cells. […] Non-stimulated cells (“non stim”) of proNGF served as the control and determined a base invasion of 100% (white bar).
(§3) The Boyden Chambers (Transwell®; BD Biosciences; France) were recovered from a biological matrix (type 1 collagen from rats diluted to 400 μg·mL-1 in EMEM-0.1% FCS medium; Millipore). […] The number of cells was estimated after staining with Hoechst 33 258 (1 mM; 30 min; 20° C.) by counting the nuclei thereof using fluorescence microscopy on a total of 5 five randomly chosen fields (lens 10×; λ-excitation: 345 nm; λ-emission: 478 nm; Eclipse Ti) using the ImageJ software. […]

[2] = target: T1, TrkA/sortilin/EphA2 complex (Homo sapiens, UniProt Q99523); test: Immunoprecipitation of the TrkA/sortilin/EphA2 complex in cells MDA-MB-231 HA-TrkA; conditions: MDA-MB-231 HA-TrkA
T1 construct: expressed in transfected cells
T1 sequence (Q99523 78-831): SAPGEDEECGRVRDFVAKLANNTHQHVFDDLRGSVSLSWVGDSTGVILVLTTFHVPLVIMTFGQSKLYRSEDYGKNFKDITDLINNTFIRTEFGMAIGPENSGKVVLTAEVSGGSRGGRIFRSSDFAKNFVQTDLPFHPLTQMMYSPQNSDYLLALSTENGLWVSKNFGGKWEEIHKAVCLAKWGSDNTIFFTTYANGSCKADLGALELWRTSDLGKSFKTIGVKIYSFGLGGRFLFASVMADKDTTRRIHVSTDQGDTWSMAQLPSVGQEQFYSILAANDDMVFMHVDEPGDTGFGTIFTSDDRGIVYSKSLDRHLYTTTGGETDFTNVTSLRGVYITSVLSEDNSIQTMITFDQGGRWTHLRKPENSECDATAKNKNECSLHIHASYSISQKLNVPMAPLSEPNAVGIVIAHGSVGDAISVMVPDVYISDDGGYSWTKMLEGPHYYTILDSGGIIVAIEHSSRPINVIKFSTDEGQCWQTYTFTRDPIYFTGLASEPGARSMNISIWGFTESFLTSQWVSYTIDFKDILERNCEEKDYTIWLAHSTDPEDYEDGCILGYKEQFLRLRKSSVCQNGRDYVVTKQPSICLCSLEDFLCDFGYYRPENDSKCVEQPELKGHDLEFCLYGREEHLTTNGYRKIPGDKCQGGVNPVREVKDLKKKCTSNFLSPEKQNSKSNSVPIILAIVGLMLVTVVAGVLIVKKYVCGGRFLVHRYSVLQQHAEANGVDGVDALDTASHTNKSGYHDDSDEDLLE
Description: A. Cells MDA-MB-231 HA-TrkA were transfected with siTrkA and then treated with proNGF N.C.
D. Cells MDA-MB-231 HA-TrkA were transfected with siEphA2 and then treated with proNGF N.C. (30 min).
The sequences of siRNA used against EphA2 (siEphA2) at 100 pmol for each transfection, and against TrkA (pool of 3 siTrkA 1, 2 and 3) are given in table 1. The transfections of siRNA are produced by means of [sequence]in™ according to the manufacturers instructions (POL409-10, Polyplus transfection, Ozyme, Saint Quentin en Yvelines, France).
The beads (Protein G-agarose, Millipore) were washed twice (12,000 g; 1 min; 4° C.) and recovered in PBS IX (at 50% (v/v)). The protein samples (1 mg) were pre-clarified (1 h; 4° C.; on a wheel (10 rpm)) with 100 μl of beads and 5 μg of isotypical antibodies (mouse IgG2b), centrifuged (12,000 g; 2 min; 4° C.), then the supernatant was incubated (2 h; 4° C.; on a wheel (10 rpm)) with 5 μg of α-HA 12CA5 antibody (Roche). The beads (100 μL at 50% in PBS IX) were added directly to the antibody/protein complex then incubated (2 h; 4° C.; on a wheel (10 rpm)). The antibody/antigen/bead complexes were then centrifuged (12,000 g; 5 min; 4° C.), washed three times (lysis buffer; 4° C.), then disassociated by addition of Laemmli 2× buffer (25 mM Tris-HCl, 0.8% SDS, 4% glycerol, 1% β-mercaptoethanol, pH 6.8) (7 min; 100° C.). […]

[3] = test system: DU145 cells; test: In vitro invasion test (Boyden chamber), DU145
Description: as §1, §2
as §3, with “Millipore). The cells were then seeded with 100,000 cells/well on PET membranes (polyethylene terephtalate; dia.: 10.5 mm; porosity: 8 μm) of Boyden Chambers and held in an EMEM-0.1% FCS medium. […] (0.5 nM) in the lower part.” for “Millipore).”

[4] = NGF 16 nM or proNGF N.C. 0.5 nM, untreated cells = 100%
[5] = siRNA transfection vs siCTRL, proNGF

| Substance | cell invasion under growth factor [1, 4] | association of TrkA, sortilin and EphA2 (co-immunoprecipitation) under ligand treatment ([2]; 0.5 nM proNGF N.C. or 16 nM NGF, 5 and 30 min) | cell invasion under growth factor [3, 4] | invasion induced by proNGF in siRNA-transfected cells [1, 5] | formation of the TrkA/sortilin/EphA2 complex under proNGF with invalidation of a receptor ([2]; proNGF N.C., siRNA transfection or 1 μM neurotensin) | invasion induced by proNGF in siRNA-transfected cells [3, 5] |
| --- | --- | --- | --- | --- | --- | --- |
| NGF: Nerve Growth Factor; recombinant human β NGF supplied by Scil Proteins | increased cell invasion | induce a delayed association of TrkA and sortilin but does not induce bonding with EphA2 | increased cell invasion |  |  |  |
| siEphA2: siRNA against EphA2, GCAAGGAAGUGGUACUGCUGGACUU (SEQ ID NO: 1) (listed as RNA, chemistry not given here) |  |  |  | abolished the invasion induced by proNGF | no bond was observed between EphA2 and TrkA | abolished the invasion induced by proNGF |
